Assays:
[1] = Dynamic vapor sorption (DVS) and stability at ambient temperature and humidity; assay type: physicochemical; settings: water loss occurs quickly during handling
Text: Due to the unstable nature of hydrate HA at ambient temperature and humidity, water loss occurs quickly during handling of the samples and the high water content observed by DVS analysis was not seen in DSC or TGA analysis. This water loss behavior is considered to explain the different DSC and TGA results for the two hydrate HA samples.

Human IL-17A x IL-17RA = target: T1, Human IL-17A x IL-17RA (Homo sapiens, UniProt Q16552); settings: biotinylated human IL-17A 5 nM, AF647-labeled human IL-17RA 30 nM; read-out: IL17AA FRET/IL17Rawt IC50; cited from earlier work
T1 sequence (Q16552 24-155): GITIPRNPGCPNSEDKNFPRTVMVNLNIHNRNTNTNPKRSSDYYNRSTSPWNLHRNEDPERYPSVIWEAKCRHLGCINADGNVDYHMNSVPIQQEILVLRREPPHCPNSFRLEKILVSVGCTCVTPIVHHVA

Row | SMILES | stability at ambient temperature and humidity [1] | IC50 (Human IL-17A x IL-17RA) [nM]
1 | Cc1cc[n+]([O-])c(C)c1-c1ccc(NC(=O)[C@@H](NC(=O)c2ccnn2C)[C@H]2CCCc3ccccc32)cc1 [hydrate HA, 2,4-dimethyl-3-(4-((S)-2-(1-methyl-1H-pyrazole-5-carboxamido)-2-((S)-1,2,3,4-tetrahydronaphthalen-1-yl)acetamido)phenyl)pyridine 1-oxide] | unstable | –
2 | Cc1cc[n+]([O-])c(C)c1-c1ccc(NC(=O)[C@@H](NC(=O)c2ccnn2C)[C@H]2CCCc3ccccc32)cc1 [2,4-dimethyl-3-(4-((S)-2-(1-methyl-1H-pyrazole-5-carboxamido)-2-((S)-1,2,3,4-tetrahydronaphthalen-1-yl)acetamido)phenyl)pyridine 1-oxide] | – | 8

Source: patent US20250276957A1, “CRYSTALLINE FORMS OF AN IL-17 INHIBITOR” (Novartis AG, priority 2022, published 2025)
